For 22 compounds, IC50 and EC50 results are on record in US11066414B2, “Cot modulators and methods of use thereof” (Gilead Sciences, Inc., priority 2015, dated 2021).

Read-outs that look alike come from different tables or passages of the source.

For one test, the target named is Human Cot (Homo sapiens (Human), UniProt P41279). The experiment in a line: High Throughput Cot Biochemical Assay. Particulars: Cot HTRF (TR-FRET) biochemical assay.
For another test, the system named is TNFα. The experiment in a line: Cot Monocyte TNFα Cell Based Assay.
Setting [1] is: Homo sapiens, Monocyte, read-out: EC50 TNF, LPS-stimulated human monocytes, TNFα.
Where [2] appears, read: read-out: EC50 TNF, LPS-stimulated human monocytes, TNFα.

Chain of Human Cot (P41279 30-397): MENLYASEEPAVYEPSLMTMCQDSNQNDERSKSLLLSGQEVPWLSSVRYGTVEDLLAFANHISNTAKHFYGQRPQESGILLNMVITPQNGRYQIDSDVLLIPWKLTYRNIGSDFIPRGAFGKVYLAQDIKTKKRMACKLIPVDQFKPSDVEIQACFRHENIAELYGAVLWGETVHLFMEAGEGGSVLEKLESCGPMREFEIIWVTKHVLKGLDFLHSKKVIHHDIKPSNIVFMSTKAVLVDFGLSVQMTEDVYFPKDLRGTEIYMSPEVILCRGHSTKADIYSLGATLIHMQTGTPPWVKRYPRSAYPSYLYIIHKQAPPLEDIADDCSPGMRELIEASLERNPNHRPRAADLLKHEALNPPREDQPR

`Cn1cc2cccc([C@H](Nc3cc(C#N)c4ncc(C#N)c(NCC(C)(C)C)c4c3)c3cn(C4(C(F)(F)F)CC4)nn3)c2n1` [Example 573, (S)-6-(((2-methyl-2H-indazol-7-yl)(1-(1-(trifluoromethyl)cyclopropyl)-1H-1,2,3-triazol-4-yl)methyl)amino)-4-(neopentylamino)quinoline-3,8-dicarbonitrile]: the IC50 (usually the concentration at which inhibition is half-maximal) against Human Cot (IC50 HTRF) came to 66 nM. Besides, the EC50 (as a rule, the midpoint of the concentration-response curve) in the test on TNFα (setting [1]) is 751 nM.
Taken in the same sequence, the figures for `[2H]c1c([C@@H](Nc2cc(C#N)c3ncc(C#N)c(NCC(C)(C)C)c3c2)c2ccc(F)nc2C)nnn1C1(C(F)(F)F)CC1` [Example 574, (S)-6-(((6-fluoro-2-methylpyridin-3-yl)(1-(1-(trifluoromethyl)cyclopropyl)-1H-1,2,3-triazol-4-yl-5-d)methyl)amino)-4-(neopentylamino)quinoline-3,8-dicarbonitrile] were 4 nM and 86 nM.
`CC(C)(C)CNc1c(C#N)cnc2c(C#N)cc(N[C@H](c3cn(C4(C(N)=O)CC4)nn3)c3cccc4ncccc34)cc12` [Example 575, (S)-1-(4-(((3,8-dicyano-4-(neopentylamino)-quinolin-6-yl)amino)(quinolin-5-yl)methyl)-1H-1,2,3-triazol-1-yl)cyclopropane-1-carboxamide] came in with an IC50 at Human Cot (IC50 HTRF) of 1 nM. Further, the concentration giving a half-maximal response (EC50) in the test with TNFα (setting [1]) came out at 974 nM.
The matching figures for `CC(C)(C)CNc1c(C#N)cnc2c(C#N)cc(N[C@H](c3cn(C4(C(N)=O)CCC4)nn3)c3cccc4ncccc34)cc12` [Example 576, (S)-1-(4-(((3,8-dicyano-4-(neopentyl-amino)quinolin-6-yl)amino)(quinolin-5-yl)methyl)-1H-1,2,3-triazol-1-yl)cyclobutane-1-carboxamide]: 1 nM and 433 nM.
Taken in the same sequence, the figures for `CC(C)(C)CNc1c(C#N)cnc2c(C#N)cc(N[C@H](c3cn(C4(C#N)CC4)nn3)c3cccc4ncccc34)cc12` [Example 577, (S)-6-(((1-(1-cyanocyclopropyl)-1H-1,2,3-triazol-4-yl)(quinolin-5-yl)methyl)amino)-4-(neopentylamino)-quinoline-3,8-dicarbonitrile] were 1 nM and 49 nM.
In the case of `CC(C)(C)CNc1c(C#N)cnc2c(C#N)cc(N[C@H](c3cn(C4(C)CC4)nn3)c3cccc4ncccc34)cc12` [Example 578, (S)-6-(((1-(1-methylcyclopropyl)-1H-1,2,3-triazol-4-yl)(quinolin-5-yl)methyl)amino)-4-(neopentylamino)quinoline-3,8-dicarbonitrile], the IC50 against Human Cot (IC50 HTRF) worked out at 2 nM. Moreover, the half-maximal effective concentration (EC50) in the test on TNFα (setting [1]) is 32 nM.
For `Cc1nc(F)ccc1[C@H](Nc1cc(Cl)c2ncc(C#N)c(NCC(C)(C)C)c2c1)c1cn([C@@H]2C[C@@H]2F)nn1` [Example 579, 8-chloro-6-(((S)-(6-fluoro-2-methylpyridin-3-yl)(1-((lR,2S)-2-fluorocyclopropyl)-1H-1,2,3-triazol-4-yl)methyl)amino)-4-(neopentylamino)quinoline-3-carbonitrile], at Human Cot (read-out: IC50 HTRF), the IC50 stood at 2 nM. In addition, in the test on TNFα (setting [2]), the 50% effective concentration (EC50) was determined as 24 nM.
On Human Cot (IC50 HTRF), `CC(C)(C)CNc1c(C#N)cnc2c(C#N)cc(N[C@H](c3cn(C4(C#N)CC4)nn3)c3cccc4cnccc34)cc12` [Example 580, (S)-6-(((1-(1-cyanocyclopropyl)-1H-1,2,3-triazol-4-yl)(isoquinolin-5-yl)methyl)amino)-4-(neopentylamino)-quinoline-3,8-dicarbonitrile] displayed a half-inhibitory concentration (IC50) of 2 nM. In addition, the half-maximal effective concentration (EC50) in the test with TNFα (setting [1]) was 84 nM.
Taken in the same sequence, the figures for `CC(C)(C)CNc1c(C#N)cnc2c(C#N)cc(N[C@H](c3cn(C4(C)CC4)nn3)c3cccc4cnccc34)cc12` [Example 581, (S)-6-((isoquinolin-5-yl(1-(1-methylcyclo-propyl)-1H-1,2,3-triazol-4-yl)methyl)amino)-4-(neopentylamino)quinoline-3,8-dicarbonitrile] were 2 nM and 32 nM.
Taken in the same sequence, the figures for `Cc1nc(F)ccc1[C@H](Nc1cc(C#N)c2ncc(C#N)c(N[C@H](C)C(C)(C)C)c2c1)c1cn(C2(C(F)(F)F)CC2)nn1` [Example 583, 4-(((R)-3,3-dimethylbutan-2-yl)amino)-6-(((S)-(6-fluoro-2-methylpyridin-3-yl)(1-(1-(trifluoromethyl)cyclopropyl)-1H-1,2,3-triazol-4-yl)methyl)amino)quinoline-3,8-dicarbonitrile] were 4 nM and 121 nM.
Regarding `CC(C)(C)CNc1c(C#N)cnc2c(C#N)cc(N[C@H](c3cn(C4(C(N)=O)CC4)nn3)c3cccc4cnccc34)cc12` [Example 586, (S)-1-(4-(((3,8-dicyano-4-(neopentylamino)-quinolin-6-yl)atnino)(isoquinolin-5-yl)methyl)-1H-1,2,3-triazol-yl)cyclopropane-1-carboxamide], the IC50 at Human Cot (read-out: IC50 HTRF) turned out to be 2 nM. Moreover, the EC50 with TNFα (setting [2]) was 1000 nM.
On to `CC(C)(C)CNc1c(C#N)cnc2c(C#N)cc(N[C@H](c3cn(C4(C(N)=O)CCC4)nn3)c3cccc4cnccc34)cc12` [Example 587, (S)-1-(4-(((3,8-dicyano-4-(neopentylamino)-quinolin-6-yl)amino)(isoquinolin-5-yl)methyl)-1H-1,2,3-triazol-1-yl)cyclobutane-1-carboxamide], for which, on Human Cot (IC50 HTRF), half-maximal inhibition (IC50) was put at 1 nM. For the same compound, in the test on TNFα (setting [1]), the EC50 came out at 489 nM.
Taken in the same sequence, the figures for `Cc1nc(F)ccc1[C@H](Nc1cc(Cl)c2ncc(C#N)c(NC3CCCCC3)c2c1)c1cn(C2(C(F)(F)F)CC2)nn1` [Example 588, (S)-8-chloro-4-(cyclohexylamino)-6-(((6-fluoro-2-methylpyridin-3-yl)(1-(1-(trifluoromethyl)cyclopropyl)-1H-1,2,3-triazol-4-yl)methyl)amino)quinoline-3-carbonitrile] were 55 nM and 629 nM.
Taken in the same sequence, the figures for `Cc1nc(F)ccc1[C@H](Nc1cc(C#N)c2ncc(C#N)c(NCC(C)(C)C)c2c1)c1cn(C(C)(C)C(F)F)nn1` [Example 590, (S)-6-(((1-(1,1-difluoro-2-methylpropan-2-yl)-1H-1,2,3-triazol-4-yl)(6-fluoro-2-methylpyridin-3-yl)methyl)amino)-4-(neopentylamino)-quinoline-3,8-dicarbonitrile] were 3 nM and 57 nM.
`Cc1nc(F)ccc1[C@H](Nc1cc(C#N)c2ncc(C#N)c(NCC(C)(C)C)c2c1)c1cn(C(C)(C)C(F)(F)F)nn1` [Example 591, (S)-6-(((6-fluoro-2-methylpyridin-3-yl)(1-(1,1,1-trifluoro-2-methylpropan-2-yl)-1H-1,2,3-triazol-4-yl)methyl)amino)-4-(neopentylamino)quinoline-3,8-dicarbonitrile] gave a half-maximal inhibitory concentration (IC50) at Human Cot (IC50 HTRF) of 5 nM. Moreover, the EC50 with TNFα (setting [1]) stood at 106 nM.
Taken in the same sequence, the figures for `CCc1nc(F)ccc1[C@H](Nc1cc(Cl)c2ncc(C#N)c(NCC(C)(C)C)c2c1)c1cn(C2(C(F)F)CC2)nn1` [Example 592, (S)-8-chloro-6-(((1-(1-(difluoromethyl)cyclo-propyl)-1H-1,2,3-triazol-4-yl)(2-ethyl-6-fluoropyridin-3-yl)methyl)amino)-4-(neopentylamino)quinoline-3-carbonitrile] were 5 nM and 78 nM.
Take `CCc1nc(F)ccc1[C@H](Nc1cc(Cl)c2ncc(C#N)c(NCC(C)(C)C)c2c1)c1cn(C2(C(F)(F)F)CC2)nn1` [Example 593, (S)-8-chloro-6-(((2-ethyl-6-fluoropyridin-3-yl)(1-(1-(trifluoromethyl)cyclopropyl)-1H-1,2,3-triazol-4-yl)methyl)amino)-4-(neopentylamino)quinoline-3-carbonitrile]: inhibition against Human Cot (IC50 HTRF) was half-maximal at 8 nM (IC50). Besides, in the test on TNFα (setting [1]), the EC50 was found to be 298 nM.
At Human Cot (IC50 HTRF), `CC(C)(C)CNc1c(C#N)cnc2c(Cl)cc(N[C@H](c3cn(C4(CF)CC4)nn3)c3cccc4ccncc34)cc12` [Example 594, (S)-8-chloro-6-(((1-(1-(fluoromethyl)cyclopropyl)-1H-1,2,3-triazol-4-yl)(isoquinolin-8-yl)methyl)amino)-4-(neopentylamino)quinoline-3-carbonitrile] showed an IC50 of 2 nM. For the same compound, in the test with TNFα (setting [1]), the half-maximal effective concentration (EC50) came to 33 nM.
The matching figures for `COc1cc(N[C@H](c2cn(C3(C(F)(F)F)CC3)nn2)c2ccc(F)nc2C)cc2c(NCC(C)(C)C)c(C#N)cnc12` [Example 595, (S)-6-(((6-fluoro-2-methylpyridin-3-yl)(1-(1-(trifluoromethyl)cyclopropyl)-1H-1,2,3-triazol-4-yl)methyl)amino)-8-methoxy-4-(neopentylamino)quinoline-3-carbonitrile]: 209 nM and 1000 nM.
At Human Cot (IC50 HTRF), `COc1cc(N[C@H](c2cn(C3(C#N)CC3)nn2)c2ccc(F)nc2C)cc2c(NCC(C)(C)C)c(C#N)cnc12` [Example 596, (S)-6-(((1-(1-cyanocyclopropyl)-1H-1,2,3-triazol-4-yl)(6-fluoro-2-methylpyridin-3-yl)methyl)amino)-8-methoxy-4-(neopentylamino)quinoline-3-carbonitrile] came in with a concentration for half-maximal inhibition (IC50) of 79 nM. Moreover, the half-maximal effective concentration (EC50) in the test on TNFα (setting [1]) was determined as 826 nM.
Taken in the same sequence, the figures for `CCc1nc(F)ccc1[C@H](Nc1cc(C#N)c2ncc(C#N)c(NCC(C)(C)C)c2c1)c1cn(C2(C(F)F)CC2)nn1` [Example 597, (S)-6-(((1-(1-(difluoromethyl)cyclopropyl)-1H-1,2,3-triazol-4-yl)(2-ethyl-6-fluoropyridin-3-yl)methyl)amino)-4-(neopentylamino)quinoline-3,8-dicarbonitrile] were 3 nM and 150 nM.
Taken in the same sequence, the figures for `CCc1nc(F)ccc1[C@H](Nc1cc(C#N)c2ncc(C#N)c(NCC(C)(C)C)c2c1)c1cn(C2(C(F)(F)F)CC2)nn1` [Example 598, (S)-6-(((2-ethyl-6-fluoropyridin-3-yl)(1-(1-(trifluoromethyl)cyclopropyl)-1H-1,2,3-triazol-4-yl)methyl)amino)-4-(neopentylamino)-quinoline-3,8-dicarbonitrile] were 5 nM and 198 nM.
